# Experiments:
# [1] = test system: Candida albicans, Trichophyton spp., Epidermophyton spp., and Aspergillus spp.; conditions: cited from earlier work
# [2] = biological target: protein tyrosine phosphatase 1B (PTP1B) (Homo sapiens, UniProt P18031); conditions: cited from earlier work
# [3] = test system: phosphatases of regenerating liver (PRL); conditions: cited from earlier work
# endo-exonuclease = conditions: PCT Publication No. WO 01/35935; cited from earlier work
# MMP-3 (stromelysin) = test: IL-1 induced MMP-3 (stromelysin) mRNA expression in chondrocytes, Northern blot; format: cell-based
# Experimental: (§1) Cells were treated with paclitaxel at various concentrations (10^−7 to 10^−5 M) for 24 hours, then treated with IL-1β (20 ng/ml) for additional 18 hours in the presence of paclitaxel. Total RNA was isolated, and the MMP-1 mRNA levels were determined by Northern blot analysis. The blots were subsequently stripped and reprobed with ^32P-radiolabeled rat GAPDH cDNA, which was used as a housekeeping gene. […] Quantitation of collagenase-1 and stromelysin-expression mRNA levels were conducted. The MMP-1 and MMP-3 expression levels were normalized with GAPDH.
# [4] = test system: Chick Chorioallantoic Membrane (CAM); test: Chick chorioallantoic membrane (CAM) angiogenesis assay; format: in vivo; conditions: for Inhibition/n: 48 hours exposure
# Experimental: Fertilized, domestic chick embryos were incubated for 3 days prior to shell-less culturing. In this procedure, the egg contents were emptied by removing the shell located around the air space. The interior shell membrane was then severed and the opposite end of the shell was perforated to allow the contents of the egg to gently slide out from the blunted end. The egg contents were emptied into round-bottom sterilized glass bowls and covered with petri dish covers. These were then placed into an incubator at 90% relative humidity and 3% CO2 and incubated for 3 days.
# Paclitaxel (Sigma, St. Louis, […].) was mixed at concentrations of 0.25, 0.5, 1, 5, 10, 30 μg per 10 ul aliquot of 0.5% aqueous methylcellulose. […] Ten microliter aliquots of this solution were dried on parafilm for 1 hour forming disks 2 mm in diameter. The dried disks containing paclitaxel were then carefully placed at the growing edge of each CAM at day 6 of incubation. Controls were obtained by placing paclitaxel-free methylcellulose disks on the CAMs over the same time course. After a 2 day exposure (day 8 of incubation) the vasculature was examined with the aid of a stereomicroscope. Liposyn II, a white opaque solution, was injected into the CAM to increase the visibility of the vascular details. The vasculature of unstained, living embryos were imaged using a Zeiss stereomicroscope which was interfaced with a video camera (Dage-MTI Inc., Michigan City, Ind.). […] Image negatives were then made on a graphics recorder (Model 3000; Matrix Instruments, Orangeburg, N.Y.).
# The membranes of the 8 day-old shell-less embryo were flooded with 2% glutaraldehyde in 0.1 M sodium cacodylate buffer; additional fixative was injected under the CAM. After 10 minutes in situ, the CAM was removed and placed into fresh fixative for 2 hours at room temperature. The tissue was then washed overnight in cacodylate buffer containing 6% sucrose. The areas of interest were postfixed in 1% osmium tetroxide for 1.5 hours at 4° C. The tissues were then dehydrated in a graded series of ethanols, solvent exchanged with propylene oxide, and embedded in Spurr resin. Thin sections were cut with a diamond knife, placed on copper grids, stained, and examined in a Joel 1200EX electron microscope. Similarly, […] sections were cut and stained with […] for light microscopy.
# At day 11 of development, chick embryos were used for the corrosion casting technique. Mercox resin (Ted Pella, Inc., Redding, Calif.) was injected into the CAM vasculature using a 30-gauge hypodermic needle. […] After injection, the plastic was allowed to sit in situ for an hour at room temperature and then overnight in an oven at 65° C. The CAM was then placed in 50% aqueous solution of sodium hydroxide to digest all organic components. The plastic casts were washed extensively in distilled water, air-dried, coated with gold/palladium, and viewed with the Philips 501B scanning electron microscope.
# After 48 hours exposure to paclitaxel at concentrations of 0.25, 0.5, 1, 5, 10, or 30 μg, each CAM was examined under living conditions with a stereomicroscope equipped with a video/computer interface in order to evaluate the effects on angiogenesis. This imaging setup was used at a magnification of 160× which permitted the direct visualization of blood cells within the capillaries; thereby blood flow in areas of interest may be easily assessed and recorded. For this study, the inhibition of angiogenesis was defined as an area of the CAM (measuring 2-6 mm in diameter) lacking a capillary network and vascular blood flow. Throughout the experiments, avascular zones were assessed on a 4 point avascular gradient (see the table below). This scale represents the degree of overall inhibition with maximal inhibition represented as a 3 on the avascular gradient scale. Paclitaxel was very consistent and induced a maximal avascular zone (6 mm in diameter or a 3 on the avascular gradient scale) within 48 hours depending on its concentration. […]
# cartilage = test: Hartley guinea pig knees with ACL damage, joint and cartilage score (FIG. 7, 8); format: in vivo
# AP-1 [5] = test: IL-1 induced AP-1 binding activity in chondrocyte lysates (FIG. 3); format: cell-based; conditions: lysates from chondrocytes pretreated with paclitaxel
# [6] = test system: knee joint (synovial cavity); test: Maximum tolerated dose (MTD) of a drug after intra-articular injection; conditions: for MTD (dose for which knee inflammation was not observed): 0.1 mL intra-articular
# Experimental: Male Hartley guinea pigs, at least 6 weeks old, were anaesthetized using 5% isoflurane in an enclosed chamber. The animals were weighed and then transferred to the surgical table where anesthesia was maintained by nose cone with 2% isoflurane. The knee area on both legs was shaved and knee width at the head of the femur was measured on both knees. The skin on the right knee was sterilized. A 25G needle was introduced into the synovial cavity using a medial approach and 0.1 mL of the test formulation was injected. Three or seven days after the injection, the animals were sacrificed by cardiac injection of 0.7 mL Euthanyl under deep anesthesia (5% isoflurane). Sample size was N=3 for each formulation.
# Knee function was assessed before sacrifice by recording changes in walking behavior and signs of tenderness. The animal was weighed immediately after sacrifice. The width of both knees at the head of the femur was then measured with calipers. The knee joint was dissected open by transecting the quadriceps tendon, cutting through the lateral and medial articular capsule and flipping the patella over the tibia. Knee inflammation was assessed by recording signs of swelling, vascularization, fluid accumulation and change in color in subcutaneous tissue as well as inner joint structures. Photographs were taken to document findings. All data was recorded by observers blinded to the treatment groups.
# [7] = test system: collagenase and stromelysin; test: IL-1 induced collagenase and stromelysin RNA levels in chondrocytes (FIG. 4, 5); format: cell-based; conditions: pretreatment
# AP-1 [8] = test: IL-1 stimulated AP-1 transcriptional activity (AP-1 driven CAT reporter gene) in transfected chondrocytes; format: cell-based; conditions: paclitaxel 10^−7 to 10^−5 M, concentration dependent; IL-1 50 ng/ml, 24 hours
# Experimental: Chondrocytes were transfected with constructs containing an AP-1 driven CAT reporter gene, and stimulated with IL-1, IL-1 (50 ng/ml) was added and incubated for 24 hours in the absence and presence of paclitaxel at various concentrations. […] The data noted with an asterisk (*) have significance compared with IL-1-induced CAT activity according to a t-test, P<0.05. The results shown are representative of three independent experiments.
# AP-1 [9] = test: IL-1 induced AP-1 DNA binding activity, gel mobility shift assay with chondrocyte extracts; format: cell-based; conditions: chondrocytes pretreated with paclitaxel 10^−7 to 10^−5 M for 24 hours
# Experimental: Binding activity was assayed with a radiolabeled human AP-1 sequence probe and gel mobility shift assay. Extracts from chondrocytes untreated or treated with various amounts of paclitaxel (10^−7to 10^−5 M) followed by IL-1β (20 ng/ml) were incubated with excess probe on ice for 30 minutes, followed by non-denaturing gel electrophoresis. The “com” lane contains excess unlabeled AP-1 oligonucleotide. The results shown are representative of three independent experiments.
# [10] = test system: ACL injured guinea pig knees (osteoarthritis); test: Inhibition of cartilage damage in the ACL injured Hartley guinea pig model of osteoarthritis; format: in vivo, Hartley guinea pigs; conditions: hyaluronic acid formulation; low dose (dose 1) and medium dose (dose 2); 5 weekly intra-articular injections; ten weeks after injury
# From the text: The skin on the right knee was sterilized. A 20G needle was introduced in the knee joint using a medial approach and the anterior cruciate ligament was cut with the sharp end of the needle.
# Two weeks after the initial procedure, the animals were anesthetized with isoflurane (5% induction −2% maintenance) and weighed. […] The skin of the injured knee was sterilised. […] Injections were repeated weekly for a total of 5 injections. Sample size was N=12 for each formulation. Two doses of paclitaxel and control formulation were tested.
# A final knee measurement was taken. The skin over the knee area was removed without damaging subcutaneous tissues. The knee joints were then harvested en bloc and placed into a formaldehyde (37%)/acetic acid solution (5:1 ratio) for fixation. Samples were sent to an independent laboratory for the conduct of histological preparation of joints and assessment by a pathologist for signs of cartilage damage.
# Briefly knee sections were made to examine cartilage and slides were stained with H&E stain. […] Bar graphs were constructed from each group and compared.
# MMP-1 (collagenase-1) = test: IL-1 induced MMP-1 (collagenase) mRNA expression in chondrocytes, Northern blot; format: cell-based
# Experimental: as §1
# [11] = in vivo; cited from earlier work
# [12] = in vivo; cited from earlier work; remark: listed apart in the source
# [13] = test system: Candida spp., Aspergillus spp., Sporothrix schenckii, Penicillium marneffei, Malassezia furfur, Cryptococcus neoformans, Trichosporon spp. and …; conditions: against most of the listed species; cited from earlier work
# [14] = 10^−5 M paclitaxel, pretreatment 24 hours
# protein tyrosine phosphatase 1B (PTP1B), sequence (P18031 whole entry): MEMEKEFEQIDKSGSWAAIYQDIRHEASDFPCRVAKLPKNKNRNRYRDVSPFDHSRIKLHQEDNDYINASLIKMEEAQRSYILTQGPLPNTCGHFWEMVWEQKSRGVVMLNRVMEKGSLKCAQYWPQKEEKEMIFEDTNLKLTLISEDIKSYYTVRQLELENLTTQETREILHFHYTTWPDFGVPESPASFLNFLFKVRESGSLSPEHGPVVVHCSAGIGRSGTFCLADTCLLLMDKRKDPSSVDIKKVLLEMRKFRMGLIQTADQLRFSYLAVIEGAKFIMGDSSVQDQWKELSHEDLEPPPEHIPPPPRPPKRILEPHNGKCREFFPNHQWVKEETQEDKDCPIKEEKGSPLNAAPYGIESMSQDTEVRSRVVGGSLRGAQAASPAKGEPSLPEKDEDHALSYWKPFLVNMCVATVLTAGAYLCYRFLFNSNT
compound,measurement,setting,value
"Cc1cc(C2CCCCC2)n(O)c(=O)c1 [Ciclopirox, ciclopirox]",antifungal activity,[1],fungistatic and fungicidal
N=C(N)c1ccc(OCCCCCOc2ccc(C(=N)N)cc2)cc1 [pentamidine],inhibition of PTP1B,[2],effective inhibitor
same,inhibition of oncogenic phosphatases of regenerating liver,[3],potent inhibitor
same,inhibition of the activity of endo-exonuclease,endo-exonuclease,inhibit the activity
CC(=O)O[C@H]1C(=O)[C@@]2(C)[C@H]([C@H](OC(=O)c3ccccc3)[C@]3(O)C[C@H](OC(=O)[C@H](O)[C@@H](NC(=O)c4ccccc4)c4ccccc4)C(C)=C1C3(C)C)[C@]1(OC(C)=O)CO[C@@H]1C[C@@H]2O [paclitaxel],IL-1 induced stromelysin mRNA levels,MMP-3 (stromelysin); [14],complete inhibition
same,concentration capable of inhibiting stromelysin expression in vitro,MMP-3 (stromelysin); chondrocytes,10^−6 M
same,Inhibition/n,[4]; 0.25 ug in methylcellulose (10 ul),2/11
same,Inhibition/n,[4]; 0.5 ug in methylcellulose (10 ul),6/11
same,Inhibition/n,[4]; 1 ug in methylcellulose (10 ul),6/15
same,Inhibition/n,[4]; 5 ug in methylcellulose (10 ul),20/27
same,Inhibition/n,[4]; 10 ug in methylcellulose (10 ul),16/21
same,Inhibition/n,[4]; 30 ug in methylcellulose (10 ul),31/31
same,maximal avascular zone on the avascular gradient scale,[4]; within 48 hours depending on concentration,3
same,"average rank of joint scores, dose response trend","cartilage; Hartley guinea pig knees with ACL damage, p<0.02",statistically significant
same,cartilage in knee cross section,cartilage; dose 1 (low dose),fraying of cartilage
same,cartilage in knee cross section,cartilage; dose 2 (medium dose),minor defects to cartilage
same,IL-1 induced binding activity,AP-1 [5],decreased
same,MTD (dose for which knee inflammation was not observed),"[6]; co-solvent formulation, 3 day evaluation",1.5 mg/mL
same,MTD (dose for which knee inflammation was not observed),"[6]; triblock gel formulation according to Example 34, evaluation at 7 days",0.075 mg/mL
same,tolerated doses,"[6]; triblock gel formulation, evaluation after three days",up to 0.15 mg/ml
same,IL-1 induction of collagenase and stromelysin RNA levels,[7],can be inhibited
same,IL-1 induced AP-1 reporter gene CAT activity,AP-1 [8],reduced IL-1 induced AP-1 reporter gene CAT activity
same,IL-1 induced AP-1 binding to oligonucleotides,AP-1 [9],IL-1 induced binding activity decreased
same,cartilage damage (pathologist score),[10],statistical reduction in cartilage damage relative to control
same,IL-1 induced collagenase mRNA levels,MMP-1 (collagenase-1); [14],complete inhibition
same,concentration capable of inhibiting collagenase expression in vitro,MMP-1 (collagenase-1); chondrocytes,10^−6 M
"O=C(Nc1ccc([N+](=O)[O-])cc1Cl)c1cc(Cl)ccc1O [Niclosamide, niclosamide]",toxicity in mammals,[11],very low toxicity
"CN(C)/N=N/c1[nH]cnc1C(N)=O [Dacarbazine, dacarbazine]",absorption from the GI tract,[12],poorly absorbed
"CN(C/C=C/C#CC(C)(C)C)Cc1cccc2ccccc12.Cl [terbinafine, terbinafine hydrochloride]",in vitro antifungal activity,[13],has activity

# From patent US20070299043A1, “Anti-scarring drug combinations and use thereof” (priority 2005, published 2007)
